Experimental data published in patent US11549142B2, “CETP inhibitors for therapeutic use” (Hoffmann-La Roche Inc., priority 2013, dated 2023).

Tested on: patients recently hospitalized for an Acute Coronary Syndrome (ACS)
Test: dal-OUTCOMES phase III trial with pharmacogenomic (GWAS) analysis of cardiovascular events by ADCY9 genotype
Assay type: in vivo, human
Parameters: key to Predicted response: R: Responsive; PR: Partial Responsive; NR: Non Responsive
Procedure: The dalcetrapib mortality and morbidity trial (dal-OUTCOMES) was a double-blind, randomized, placebo-controlled, parallel group, multi-centre study in stable CHD patients recently hospitalized for acute coronary syndrome (ACS). The study was conducted to test the hypothesis that CETP inhibition will reduce the risk of recurrent cardiovascular events in patients with recent ACS by raising levels of HDL-C through CETP inhibition. Eligible patients entered a single-blind placebo run-in period of approximately 4 to 6 weeks to allow for patients to stabilize and for completion of planned revascularization procedures. At the end of the run-in period, eligible patients in stable condition were randomized in a 1:1 ratio to 600 mg of dalcetrapib or placebo on top of evidence-based medical care for ACS. Dalcetrapib is an inhibitor of cholesterol-ester transfer protein (CETP). […] The trial was interrupted in May 2012 by the DSMB on grounds of futility.
Dal-OUTCOMES trial (NC20971) was a double blind, randomized, placebo-controlled, parallel group, multi-center, phase III study to assess the safety and efficacy of the CETP inhibitor dalcetrapib in patients recently hospitalized for an Acute Coronary Syndrome (ACS). At time of the interim analysis the study included 15871 randomized patients, distributed over two treatment arms: placebo (7933 patients) and dalcetrapib (600 mg daily; 7938 patients). […] The dal-OUTCOMES study details can be found in G. Schwartz et al., N. Engl. J. Med. 367; 22, 2012.\
Whole genome analysis was performed in GLP-environment at the Beaulieu-Saucier Pharmacogenomics Centre. The Infinium® HumanOmni25Exome-8v1_A BeadChip (Illumina, San Diego, Calif.) including 2,567,845 genomic markers was used and processed according to the manufacturer's specifications. Approximately 200 ng of genomic DNA was whole-genome amplified, fragmented, and hybridized to locus-specific probes bound to the surface of each BeadChip. DNA was genotyped using a fluorescently labelled single base extension assay. BeadChips were scanned and analyzed using the Illumina® iScan Reader. Infinium® process controls were monitored and all results were within manufacturer's specifications. Scanned images were analyzed using Illumina's GenomeStudio® version 2011.1 with the GenTrain 2.0 cluster algorithm, using a No-Call threshold of 0.15, without manual cluster adjustment and using the manufacturer's Illumina® HumanOmni25Exome-8v1_A cluster file. […] Three genotyping files in PLINK format generated by GenomeStudio® were combined and transformed to binary PLINK format.
Genotyping completion rate for samples and SNPs was set to 98%. SNPs with genotyping plate bias (based on the 96 well plates used to dilute DNA samples) were flagged but not removed as the effect of genetic ancestry could not be excluded. Pairwise IBD was used to conduct close familial relationship checks. We flagged and removed all but one pair-member of related pairs and sample duplicates (IBS2*ratio>0.80) based on a selection of uncorrelated SNPs (r^2<0.1). The pairwise IBS matrix was used as a distance metric to identify cryptic relatedness among samples and sample outliers by multi-dimensional scaling (MDS). The first two MDS components of each subject were plotted including the genotypes of HapMap CEU, JPT-CHB, and YRI data (keeping only founder individuals). Outliers from the main Caucasian cluster were flagged and removed by k-nearest neighbour. (Supplementary FIG. 1) The scree plot and the cumulative explained variance were computed using the smartpca program of the EIGENSOFT suite (version 3.0). Options used were a numoutlieriter (maximum number of outlier removal iterations) of 0 (turned off) and altnormstyle (normalization formula) equal to NO. ^4 (Supplementary FIG. 2)
A statistical analysis plan was developed at the Beaulieu-Saucier Pharmacogenomics Centre and the final version approved prior to genotyping completion in October 2012. […]

Question: What does the source list for `CCC(CC)CC1(C(=O)Nc2ccccc2SC(=O)C(C)C)CCCCC1` [dalcetrapib, thioisobutyric acid S-(2-{[1-(2-ethyl-butyl)-cyclohexanecarbonyl]-amino}-phenyl) ester]?
Answer: Predicted response (rs8061182 genotype AA): R; HR for time to events, dalcetrapib treatment arm versus placebo arm (rs8061182 genotype AG): 0.99; Predicted response (rs8061182 genotype AG): PR; HR for time to events, dalcetrapib treatment arm versus placebo arm (rs8061182 genotype GG): 1.55; Predicted response (rs8061182 genotype GG): NR; HR (95% CI) for time to events, dalcetrapib treatment arm only, genotype comparison (rs11647828 AG vs AA): 0.74 (0.6, 0.92); HR (95% CI) for time to events, dalcetrapib treatment arm only, genotype comparison (rs11647828 GG vs AA): 0.46 (0.33, 0.63); HR for time to events, dalcetrapib treatment arm versus placebo arm (rs11647828 genotype AA): 1.33; Predicted response (rs11647828 genotype AA): NR; HR for time to events, dalcetrapib treatment arm versus placebo arm (rs11647828 genotype AG): 0.97; Predicted response (rs11647828 genotype AG): PR; HR for time to events, dalcetrapib treatment arm versus placebo arm (rs11647828 genotype GG): 0.61; Predicted response (rs11647828 genotype GG): R; HR (95% CI) for time to events, dalcetrapib treatment arm only, genotype comparison (rs12595857 AG vs AA): 0.7 (0.57, 0.87); HR (95% CI) for time to events, dalcetrapib treatment arm only, genotype comparison (rs12595857 GG vs AA): 0.45 (0.33, 0.62); HR for time to events, dalcetrapib treatment arm versus placebo arm (rs12595857 genotype AA): 1.27; Predicted response (rs12595857 genotype AA): NR; HR for time to events, dalcetrapib treatment arm versus placebo arm (rs12595857 genotype AG): 0.95; Predicted response (rs12595857 genotype AG): PR; HR for time to events, dalcetrapib treatment arm versus placebo arm (rs12595857 genotype GG): 0.7; Predicted response (rs12595857 genotype GG): R; HR (95% CI) for time to events, dalcetrapib treatment arm only, genotype comparison (rs12935810 AA vs GG): 1.87 (1.42, 2.48); HR (95% CI) for time to events, dalcetrapib treatment arm only, genotype comparison (rs12935810 GA vs GG): 1.3 (1.02, 1.65); HR for time to events, dalcetrapib treatment arm versus placebo arm (rs12935810 genotype AA): 1.28; Predicted response (rs12935810 genotype AA): NR; HR for time to events, dalcetrapib treatment arm versus placebo arm (rs12935810 genotype GA): 1.03; Predicted response (rs12935810 genotype GA): NR; HR for time to events, dalcetrapib treatment arm versus placebo arm (rs12935810 genotype GG): 0.79; Predicted response (rs12935810 genotype GG): R; HR (95% CI) for time to events, dalcetrapib treatment arm only, genotype comparison (rs13337675 AG vs AA): 0.84 (0.68, 1.03); HR (95% CI) for time to events, dalcetrapib treatment arm only, genotype comparison (rs13337675 GG vs AA): 0.7 (0.43, 1.14); HR for time to events, dalcetrapib treatment arm versus placebo arm (rs13337675 genotype AA): 1.07; Predicted response (rs13337675 genotype AA): NR; HR for time to events, dalcetrapib treatment arm versus placebo arm (rs13337675 genotype AG): 0.89; Predicted response (rs13337675 genotype AG): PR; HR for time to events, dalcetrapib treatment arm versus placebo arm (rs13337675 genotype GG): 1.03; Predicted response (rs13337675 genotype GG): PR; HR (95% CI) for time to events, dalcetrapib treatment arm only, genotype comparison (rs17136707 AG vs AA): 0.62 (0.47, 0.81); HR (95% CI) for time to events, dalcetrapib treatment arm only, genotype comparison (rs17136707 GG vs AA): 0.16 (0.02, 1.15); HR for time to events, dalcetrapib treatment arm versus placebo arm (rs17136707 genotype AA): 1.06; Predicted response (rs17136707 genotype AA): NR; HR for time to events, dalcetrapib treatment arm versus placebo arm (rs17136707 genotype AG): 0.8; Predicted response (rs17136707 genotype AG): PR; HR for time to events, dalcetrapib treatment arm versus placebo arm (rs17136707 genotype GG): 0.37; Predicted response (rs17136707 genotype GG): R; HR (95% CI) for time to events, dalcetrapib treatment arm only, genotype comparison (rs74702385 AA vs GG): 0.14 (0.02, 1); HR (95% CI) for time to events, dalcetrapib treatment arm only, genotype comparison (rs74702385 GA vs GG): 0.63 (0.48, 0.83); HR for time to events, dalcetrapib treatment arm versus placebo arm (rs74702385 genotype AA): 0.26; Predicted response (rs74702385 genotype AA): R; HR for time to events, dalcetrapib treatment arm versus placebo arm (rs74702385 genotype GA): 0.84; Predicted response (rs74702385 genotype GA): R; HR for time to events, dalcetrapib treatment arm versus placebo arm (rs74702385 genotype GG): 1.05; Predicted response (rs74702385 genotype GG): NR; HR (95% CI) for time to events, dalcetrapib treatment arm only, genotype comparison (rs111590482 AG vs AA): 0.64 (0.49, 0.84); HR (95% CI) for time to events, dalcetrapib treatment arm only, genotype comparison (rs111590482 GG vs AA): 0.15 (0.02, 1.1); HR for time to events, dalcetrapib treatment arm versus placebo arm (rs111590482 genotype AA): 1.04; Predicted response (rs111590482 genotype AA): NR; HR for time to events, dalcetrapib treatment arm versus placebo arm (rs111590482 genotype AG): 0.85; Predicted response (rs111590482 genotype AG): R; HR for time to events, dalcetrapib treatment arm versus placebo arm (rs111590482 genotype GG): 0.26; Predicted response (rs111590482 genotype GG): R
